Patent publication US20090142323A1, “METHODS FOR TREATING A DISORDER BY REGULATING GPRC6A” (priority 2007, published 2009)

Tests used:
GPRC6A [1] = molecular target: T1, GPRC6A (Mus musculus, UniProt Q8K4Z6); test: phospho-ERK activation in HEK-293 cells transfected with GPRC6A (immunoblot); assay type: cell-based; design: expressed in transfected cells; host or cells: HEK-293; details: for block of GPRC6A-mediated extracellular testosterone stimulated signaling: either phospho-ERK or SRE-luciferase as read-outs; for inhibition of testosterone stimulated GPRC6A-mediated activation of phospho-ERK: 10 μM PD89059, 50 μM Ly294002, 2 μM U73122, 10 μM PP-1
T1 sequence (Q8K4Z6 21-928): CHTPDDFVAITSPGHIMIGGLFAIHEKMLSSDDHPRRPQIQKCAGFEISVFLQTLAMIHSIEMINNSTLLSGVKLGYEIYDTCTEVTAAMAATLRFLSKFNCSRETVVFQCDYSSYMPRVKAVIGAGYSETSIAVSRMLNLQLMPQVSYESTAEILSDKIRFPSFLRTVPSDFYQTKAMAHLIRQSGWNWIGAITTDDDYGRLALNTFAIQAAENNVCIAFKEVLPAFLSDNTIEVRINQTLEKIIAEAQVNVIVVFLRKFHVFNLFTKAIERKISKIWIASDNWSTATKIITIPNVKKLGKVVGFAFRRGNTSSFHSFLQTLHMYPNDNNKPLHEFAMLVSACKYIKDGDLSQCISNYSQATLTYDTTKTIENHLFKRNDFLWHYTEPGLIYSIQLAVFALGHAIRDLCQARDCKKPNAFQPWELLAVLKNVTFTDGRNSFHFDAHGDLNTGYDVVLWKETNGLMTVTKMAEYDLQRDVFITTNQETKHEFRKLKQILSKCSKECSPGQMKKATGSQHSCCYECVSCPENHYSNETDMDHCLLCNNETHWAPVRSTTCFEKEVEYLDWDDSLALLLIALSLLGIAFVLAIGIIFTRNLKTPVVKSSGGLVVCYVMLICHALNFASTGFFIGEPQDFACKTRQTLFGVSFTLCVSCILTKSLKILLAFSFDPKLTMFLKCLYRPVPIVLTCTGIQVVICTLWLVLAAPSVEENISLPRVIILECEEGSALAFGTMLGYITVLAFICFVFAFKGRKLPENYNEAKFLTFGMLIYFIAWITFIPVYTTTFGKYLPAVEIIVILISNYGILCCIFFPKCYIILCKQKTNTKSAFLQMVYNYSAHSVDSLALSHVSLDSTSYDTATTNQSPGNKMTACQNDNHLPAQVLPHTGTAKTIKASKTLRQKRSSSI
Description: (§1) Equal amounts of lysates were subjected to 10% SDS-PAGE, and phospho-ERK1/2 levels were determined by immunoblotting using antiphospho-ERK1/2 mitogen-activated protein kinase antibody (Cell Signaling Technology). […] An anti-peptide antibody was raised in a rabbit against a peptide ([…] (SEQ ID NO: 27)) corresponding to a sequence in the extracellular domain of mouse GPRC6A (in exon 1 of mouse GPRC6A gene) produced by Abgent (San Diego, Calif.). For phospho-ERK, the phospho-ERK1/2 levels were determined by immunoblotting using anti-phospho-ERK1/2 mitogen-activated protein kinase antibody (Cell Signaling Technology). Urinary β2-microglobulin was detected by rabbit polyclonal anti-β2-microglobulin antibody (Abcam Inc.). For aromatase expression analysis, the rabbit polyclonal anti-aromatase antibody (Abcam Inc.) and goat anti-rabbit IgG HRP secondary antibody (Santa Cruz Biotechnology Inc.) were used. Mouse anti-Actin antibody (Santa Cruz Biotechnology Inc.) was used for control protein loading.

GPRC6A [2] = molecular target: T1, GPRC6A; test: SRE-luciferase reporter in HEK-293 cells co-transfected with pcDNA3.mGPRC6A; assay type: cell-based; design: expressed in transfected cells; host or cells: HEK-293; details: for inhibition of R1881 stimulated GPRC6A-mediated activation of luciferase: SRE-luciferase
Description: HEK-293 cells were co-transfected with pcDNA3.mGPRC6A and SRE-luciferase reporter gene plasmid. […] Luciferase activity was assessed after 6 h of stimulation. The luciferase activity in cell extracts was measured using the luciferase assay system (Promega) following the manufacturer's protocol using a BG-luminometer (Gem Biomedical, Inc., Hamden, Conn.).

GPRC6A [3] = molecular target: T1, GPRC6A; design: expressed in transfected cells; details: in vitro; cited from earlier work
[4] = tested on: bone marrow stromal cells (BMSC); test: phospho-ERK in bone marrow stromal cells from wild-type and GPRC6A-/- mice; assay type: cell-based, mouse
Description: The femurs and tibias from 8-week-old wild-type and GPRC6A^−/− mice were dissected, the ends of the bones were cut, and marrow was flushed out with 2 mL of ice-cold a-MEM containing 10% FBS using a needle and syringe. A suspension of bone marrow cells was obtained by repeated aspiration of the cell preparation through a 22-gauge needle, and nucleated cells were counted with a hemocytometer. Cells were seeded into 6-well plates at a density of 3×10^7 cells/mL and cultured for three days in a-MEM supplemented with 10% FBS, 100 kU/L of sodium penicillin G and 100 mg/L of streptomycin sulfate in a humidified incubator with 5% CO2 and 95% air at a temperature of 37° C. On day 3, all nonadherent cells were then removed with the first medium change and then the adherent cells (representing bone marrow-derived mesenchymal stem cells, BMSCs) were grown for additional periods of up 3 days in the same medium. After overnight quiescence, the cells were stimulated for 5 minutes by testosterone and p-estradiol at the concentrations as indicated.

osteoblastic cells = details: 10 nM; cited from earlier work
HEK-293 cells = test: phospho-ERK in non-transfected HEK-293 control cells; assay type: cell-based, human; details: control HEK293, no GPRC6A
Description: as §1

[5] = molecular target: T2, calcium sensing receptor (CASR) (Rattus norvegicus, UniProt P48442); test: phospho-ERK in HEK-293 cells transfected with calcium sensing receptor; assay type: cell-based; details: HEK293 transfected with CASR
T2 construct: expressed in transfected cells; host or cells: HEK-293
T2 sequence (P48442 20-1079): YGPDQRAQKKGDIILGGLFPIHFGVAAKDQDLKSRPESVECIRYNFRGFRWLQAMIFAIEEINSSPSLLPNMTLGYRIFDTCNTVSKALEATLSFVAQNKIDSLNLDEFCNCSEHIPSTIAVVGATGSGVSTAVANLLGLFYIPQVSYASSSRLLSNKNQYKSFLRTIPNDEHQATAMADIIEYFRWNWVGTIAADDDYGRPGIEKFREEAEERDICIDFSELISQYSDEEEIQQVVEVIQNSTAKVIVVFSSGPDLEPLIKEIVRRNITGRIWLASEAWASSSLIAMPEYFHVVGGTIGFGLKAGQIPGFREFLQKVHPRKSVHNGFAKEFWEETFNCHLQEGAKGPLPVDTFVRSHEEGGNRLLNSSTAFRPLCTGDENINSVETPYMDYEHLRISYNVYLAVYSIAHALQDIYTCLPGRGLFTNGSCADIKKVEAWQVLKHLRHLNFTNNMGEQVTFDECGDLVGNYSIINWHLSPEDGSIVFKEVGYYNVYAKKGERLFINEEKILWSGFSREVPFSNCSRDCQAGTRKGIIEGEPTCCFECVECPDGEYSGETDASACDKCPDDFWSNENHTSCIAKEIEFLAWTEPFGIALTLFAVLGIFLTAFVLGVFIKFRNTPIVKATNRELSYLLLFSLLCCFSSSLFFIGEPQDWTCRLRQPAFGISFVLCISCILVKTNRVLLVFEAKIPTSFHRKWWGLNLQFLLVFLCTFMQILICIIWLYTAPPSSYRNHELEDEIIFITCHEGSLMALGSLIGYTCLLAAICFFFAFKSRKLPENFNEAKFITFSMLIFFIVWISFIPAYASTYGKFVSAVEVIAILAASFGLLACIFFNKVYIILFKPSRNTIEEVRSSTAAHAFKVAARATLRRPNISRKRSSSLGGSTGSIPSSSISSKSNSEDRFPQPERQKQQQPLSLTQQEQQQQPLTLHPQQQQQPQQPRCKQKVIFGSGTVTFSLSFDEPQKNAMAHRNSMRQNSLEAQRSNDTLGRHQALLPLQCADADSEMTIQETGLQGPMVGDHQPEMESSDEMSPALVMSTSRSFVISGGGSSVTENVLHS
Description: as §1

[6] = tested on: LNCaP prostate cancer cell line; details: 10 nM, within minutes; cited from earlier work
GPRC6A [7] = molecular target: T1, GPRC6A; test: phospho-Src and phospho-Raf-1 western blot, GPRC6A-mediated; assay type: cell-based; design: expressed in transfected cells
Text: Several physiological processes arising as a result of the rapid action of the Src-Ras-ERK signaling pathway in steroids non-genomic action also have been reported. To define the role of GPRC6A in androgen-mediated cell signaling activation, we examine the Src and Raf-1 are involved in GPRC6A-mediated androgen stimulated intercellular signaling pathway.

[8] = HEK-293 cells transfected with GPRC6A
[9] = BMSC from GPRC6A-/- mice, testosterone up to 80 nM

For `Cn1cc(C2=C(c3cn(CCCSC(=N)N)c4ccccc34)C(=O)NC2=O)c2ccccc21` [Ro31-8220], the “block of GPRC6A-mediated extracellular testosterone stimulated signaling” value (GPRC6A [1]) was “blocked” and the “inhibition of R1881 stimulated GPRC6A-mediated activation of luciferase” value (shortened to “inhibition … of luciferase”) (GPRC6A [2]) was “inhibited”.
In the case of osteocalcin, the “functional responses of GPRC6A to extracellular calcium” value (GPRC6A [3]) is given as “enhance the functional responses of GPRC6A to extracellular calcium”.
With `CC(=O)[C@H]1CC[C@H]2[C@@H]3CCC4=CC(=O)CC[C@]4(C)[C@H]3CC[C@]12C` [progesterone] the “GPRC6A-mediated activation of phospho-ERK” value (GPRC6A [1]; concentrations up to 80 nM) was “no effect”.
With `C[C@]12CC[C@@H]3c4ccc(O)cc4CC[C@H]3[C@@H]1CC[C@@H]2O` [17p-estradiol] the “GPRC6A-mediated activation of phospho-ERK” value (GPRC6A [1]; [8]) was “stimulated the GPRC6A-mediated activation of phospho-ERK” and the “concentration required to activate GPRC6A (phosphorylation of ERK)” value (GPRC6A [1]; [8]) was 60 to 80 nM.
In the case of `CC(C)CCC[C@@H](C)[C@H]1CC[C@H]2[C@@H]3CC=C4C[C@@H](O)CC[C@]4(C)[C@H]3CC[C@]12C` [cholesterol], the “GPRC6A-mediated activation of phospho-ERK” value (GPRC6A [1]; [8]) was “stimulated the GPRC6A-mediated activation of phospho-ERK”.
With `Cc1ccc(-c2nn(C(C)(C)C)c3ncnc(N)c23)cc1` [PP-1] the “inhibition of testosterone stimulated GPRC6A-mediated activation of phospho-ERK” value (from here on “inhibition … of phospho-ERK”) (GPRC6A [1]) was “inhibited”, the “block of GPRC6A-mediated extracellular testosterone stimulated signaling” value (GPRC6A [1]) was “blocked” and the “inhibition … of luciferase” value (GPRC6A [2]) was “inhibited”.
In the case of `[Ca+2]` [extracellular calcium, calcium], the “stimulation of phospho-ERK in BMSC” value [4, 9] was “failed to responds” and the “stimulation of phospho-ERK in BMSC” value ([4]; BMSC from wild-type mice) was “stimulation of ERK phosphorylation”.
For `COc1ccc2c(c1)CC[C@@H]1[C@@H]2CC[C@]2(C)[C@@H](NCCCCCCN3C(=O)C=CC3=O)CC[C@@H]12` [U73122], the “inhibition … of phospho-ERK” value (GPRC6A [1]) was “inhibited”.
With `C=C1/C(=C\C=C2/CCC[C@]3(C)[C@@H]([C@H](C)CCCC(C)(C)O)CC[C@@H]23)C[C@@H](O)C[C@@H]1O` [1,25(OH)2Vit D3] the “GPRC6A-mediated activation of phospho-ERK” value (GPRC6A [1]; [8]) was “stimulated the GPRC6A-mediated activation of phospho-ERK”.
For `C[C@]12CCC(=O)C[C@@H]1CC[C@@H]1[C@@H]2CC[C@]2(C)[C@@H](O)CC[C@@H]12` [DHT], the Akt activity (osteoblastic cells) is listed as “stimulation of Akt activity”.
In the case of `COc1cccc([C@@H](C)NCCCc2ccccc2Cl)c1` [NPS-R568], the “stimulation of phospho-ERK in BMSC” value [4, 9] was “failed to responds” and the “stimulation of phospho-ERK in BMSC” value ([4]; BMSC from wild-type mice) was “stimulation of ERK phosphorylation”.
In the case of `C[C@]1(O)CC[C@H]2[C@@H]3CCC4=CC(=O)CCC4=C3C=C[C@@]21C` [R1881], the phospho-ERK response (HEK-293 cells) is listed as “did not responded”, the phospho-ERK response [5] is listed as “did not responded” and the Src kinase activity [6] is listed as “stimulation of Src kinase activity”. For the same compound, the “GPRC6A-mediated activation of phospho-Raf-1” value (GPRC6A [7]) was “stimulated”, the “GPRC6A-mediated activation of phospho-Src” value (GPRC6A [7]) was “stimulated GPRC6A-mediated activation of phospho-Src” and the “GPRC6A-mediated activation of phospho-ERK” value (GPRC6A [1]; [8]) was “stimulated extracellular signal-regulated kinase phosphorylation (phospho-ERK) in a dose-dependent fashion”. For the same compound, the “GPRC6A mediated activation of luciferase” value (GPRC6A [2]; SRE-luciferase reporter, HEK-293) was “stimulated the GPRC6A mediated activation of luciferase”.
For `C[C@]12CC[C@H](O)CC1=CC[C@@H]1[C@@H]2CC[C@]2(C)C(=O)CC[C@@H]12` [DHEA, Dehydroandrosterone], the “GPRC6A-mediated activation of phospho-ERK” value (GPRC6A [1]; [8]) was “stimulated the GPRC6A-mediated activation of phospho-ERK”.
With pertussis toxin the “block of testosterone and β-estradiol stimulated activation of phospho-ERK” value (GPRC6A [1]; 100 ng/ml PTx, stimuli at 50 nM) was “significantly blocked”.
For `COc1cccc(-c2cc(=O)c3ccccc3o2)c1N` [PD89059], the “inhibition … of phospho-ERK” value (GPRC6A [1]) was “inhibited”, the “block of GPRC6A-mediated extracellular testosterone stimulated signaling” value (GPRC6A [1]) was “blocked” and the “inhibition … of luciferase” value (GPRC6A [2]) was “inhibited”.
